Experimental data: article PMC5051719, “Fourth-Generation Progestins Inhibit 3β-Hydroxysteroid Dehydrogenase Type 2 and Modulate the Biosynthesis of Endogenous Steroids” (PLoS ONE, 2016)
Where two headings read alike, the source gives them in different places.

Key:
Type in all cases: cell-based
[1] = target: T1, 3β-hydroxysteroid dehydrogenase type 2 (3βHSD2) (Homo sapiens, UniProt P26439); assay: pregnenolone to progesterone conversion kinetics in transfected COS-1 cells, UPLC-MS/MS
T1 construct: gene HSD3B2
T1 sequence (P26439 1-372): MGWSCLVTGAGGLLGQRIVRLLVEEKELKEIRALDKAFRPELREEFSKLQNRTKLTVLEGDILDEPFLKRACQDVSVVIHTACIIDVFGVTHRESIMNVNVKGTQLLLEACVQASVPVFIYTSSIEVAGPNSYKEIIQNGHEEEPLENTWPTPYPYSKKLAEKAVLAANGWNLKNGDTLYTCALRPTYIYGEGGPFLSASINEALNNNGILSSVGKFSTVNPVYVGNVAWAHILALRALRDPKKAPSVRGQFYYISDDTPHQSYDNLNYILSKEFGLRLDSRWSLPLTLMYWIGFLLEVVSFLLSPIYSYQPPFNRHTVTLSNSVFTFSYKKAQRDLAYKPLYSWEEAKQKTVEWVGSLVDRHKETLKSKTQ

[2] = target: T2, cytochrome P450 17α-hydroxylase/17,20 lyase (CYP17A1) (Homo sapiens, UniProt P05093); assay: progesterone conversion in transfected COS-1 cells with […] inhibitor, UPLC-MS/MS
T2 construct: pIRES-hCYP17A1-V5-X-hCYPB5-6HIS expressed in COS-1 cells

[3] = target: T1, 3β-hydroxysteroid dehydrogenase type 2 (3βHSD2); assay: Michaelis-Menten kinetics of conversion to progesterone in transfected COS-1 cells (Km), UPLC-MS/MS

T2 sequence (P05093 whole entry): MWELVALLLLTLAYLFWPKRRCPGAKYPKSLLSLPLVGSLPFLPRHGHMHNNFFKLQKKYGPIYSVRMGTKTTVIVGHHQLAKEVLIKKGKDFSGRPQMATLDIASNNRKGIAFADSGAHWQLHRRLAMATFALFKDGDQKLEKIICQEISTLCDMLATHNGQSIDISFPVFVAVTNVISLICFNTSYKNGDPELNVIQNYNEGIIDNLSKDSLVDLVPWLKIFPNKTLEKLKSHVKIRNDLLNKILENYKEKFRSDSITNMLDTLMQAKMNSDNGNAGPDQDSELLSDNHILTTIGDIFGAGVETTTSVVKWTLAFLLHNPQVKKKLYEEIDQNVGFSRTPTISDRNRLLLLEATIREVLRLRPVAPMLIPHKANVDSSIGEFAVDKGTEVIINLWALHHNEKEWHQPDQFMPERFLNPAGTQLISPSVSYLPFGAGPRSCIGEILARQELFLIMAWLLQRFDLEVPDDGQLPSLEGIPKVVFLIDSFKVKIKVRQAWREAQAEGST
T2 sequence (P00167 2-134, further chain): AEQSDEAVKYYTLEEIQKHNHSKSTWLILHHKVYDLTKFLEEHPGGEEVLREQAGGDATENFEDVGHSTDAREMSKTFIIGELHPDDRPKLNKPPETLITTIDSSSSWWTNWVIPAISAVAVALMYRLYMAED

C=C1C[C@H]2[C@@H]3CCC4=CC(=O)CCC4[C@H]3CC[C@]2(C)C1(OC(C)=O)C(C)=O (stereo partly drawn) [NES, nestorone]
Ki ([1]; read-out: Ki): 9.5 ± 0.96 nM

CC(=O)O[C@]1(C(C)=O)CC[C@H]2[C@@H]3C=C(C)C4=CC(=O)CC[C@@H]4[C@H]3CC[C@@]21C [NoMAC, nomegestrol acetate]
Ki ([1]; read-out: Ki): 29 ± 7.1 nM

C[C@]12CCC(=O)C=C1[C@@H]1C[C@@H]1[C@H]1[C@@H]3[C@@H]4C[C@@H]4[C@@]4(CCC(=O)O4)[C@@]3(C)CC[C@@H]12 [DRSP, drospirenone]
inhibition at 1 µM [2]: 55.2 ± 16.5%
Ki ([1]; read-out: Ki): 232 ± 38 nM

CC(=O)[C@H]1CC[C@H]2[C@@H]3CC=C4C[C@@H](O)CC[C@]4(C)[C@H]3CC[C@]12C [Preg, pregnenolone]
Km [3]: 0.85 ± 0.05 µM

C[C@]12CC[C@H]3[C@@H](CC[C@@]45O[C@@H]4C(O)=C(C#N)C[C@]35C)[C@@H]1CC[C@@H]2O [trilostane, reference compound]
Ki [1]: 31.3 ± 5.5 nM
